In PMC10934261, “Designing Potent Anti-Cancer Agents: Synthesis and Molecular Docking Studies of Thieno[2,3-d][1,2,4]triazolo[1,5-a]pyrimidine Derivatives” (Molecules, 2024):
Several values for one entry are separate records, joined by “and”; a condition that tells them apart may be missing. Identical values can stand only once.

How the values were obtained:
[1] = system: human colorectal HCT-116 cancer cell line; assay: In vitro cytotoxic screening (MTT assay), HCT-116; format: cell-based; conditions: average ± standard deviation
Description: (§1) Using human breast MCF-7, colorectal HCT-116, and prostate PC-3 cancer cell lines, preliminary antiproliferative effectiveness of cyclopenta[4,5]thieno[2,3-d][1,2,4]triazolo[1,5-a]pyrimidin-9(6H)-ones 4–16 was established in vitro through MTT assay at different concentrations (100, 50, 25 and 12.5 μM) (Figure 2).
(§2) The cell lines were obtained from Karolinska Center, Department of Oncology and Pathology, Karolinska Institute and Hospital, Stockholm, Sweden. as follows: human breast MCF-7, colorectal HCT-116 and prostate PC-3 cancer cell lines and human skin normal BJ-1 cell line. Exponentially, cells were cultured at a concentration of 10^4 cells/well for 24 h, afterwards fresh medium containing different concentrations of the tested samples was added. Serial two-fold dilution of the tested samples were added using a multichannel pipette. Moreover, all cells were cultivated at 37 °C, 5% CO2 and 95% humidity. Also, incubation of control cells occurred at 37 °C. However, after incubation for 24 h different concentrations of samples (100, 50, 25 and 12.5 µM) were added and the incubation was continued for 48 h, then crystal violet solution 1% was added to each well for 0.5 h to examine the presence of viable cells. After rinsing the wells using water until stain free, 30% glacial acetic acid was added to all wells with shaking the plates on a Microplate reader (TECAN, Inc.) to measure the absorbance at a wavelength of 490 nm. The cytotoxicity was estimated by IC50 in μM, which is the concentration that inhibits 50% of growth of cancer cells. […]
(§3) 1.1. In vitro cytotoxic screening
(§4) The cell lines were obtained from Karolinska Center, Department of Oncology and Pathology, Karolinska Institute and Hospital, Stockholm, Sweden. as follows: human breast MCF-7, colorectal HCT-116 and prostate PC-3 cancer cell lines and human skin normal BJ-1 cell line. Exponentially, cells were placed in 10^4 cells/ well for 24 h, and then add fresh medium which containing different concentration of the tested sample. Serial two-fold dilution of the tested sample were added using a multichannel pipette. Moreover, all cells were cultivated at 37 °C, 5% CO2 and 95% humidity. Also, incubation of control cells occurred at 37 °C. However, after incubation for 24 h different concentrations of sample (100, 50, 25 and 12.5 µM) were added and continued the incubation for 48 h, then, add the crystal violet solution 1% to each well for 0.5 h to examine viable cells. Rinse the wells using water until no stain. After that, add 30% glacial acetic acid to all wells with shaking plates on Microplate reader (TECAN, Inc.) to measure the absorbance, using a test wavelength of 490 nm. Besides, compare the treated samples with the control cell. The cytotoxicity was estimated by IC50 in (μ M), the concentration that inhibits 50% of growth of cancer cell. […]
(§5) The molecular docking simulation of the promising in vitro screened cyclopenta[4,5]thieno[2,3-d][1,2,4]triazolo[1,5-a]pyrimidin-9(6H)-ones 10b and 10e against EGFR and PI3K was done using the Molecular Operating Environment software (MOE-Dock) version 2014.0901. The co-crystallized structures of EGFR and PI3K kinases complexed with their native ligands, erlotinib and quinolone LXX, were downloaded from the protein data bank (PDB codes: 1M17 and 3L54, respectively). All minimizations were performed using MOE until an RMSD gradient of 0.05 kcal∙mol−1Å−1 with MMFF94x force field and the partial charges were automatically calculated. Preparation of the enzyme structures was done for molecular docking using Protonate 3D protocol with the default options in MOE. London dG scoring function and Triangle Matcher placement method were used in the docking protocol. Initially, the original ligands were re-docked into the active binding site of EGFR and PI3K kinases to assess the root-mean-square deviation values. Then, the docking studies of the newly targeted […]

[2] = system: human breast MCF-7 cancer cell line; assay: In vitro cytotoxic screening (MTT assay), MCF-7; format: cell-based; conditions: average ± standard deviation
Description: as §1, §2, §3, §4, §5

[3] = system: human prostate PC-3 cancer cell line; assay: In vitro cytotoxic screening (MTT assay), PC-3; format: cell-based; conditions: average ± standard deviation
Description: as §1, §2, §3, §4, §5

SMILES | Percentage cytotoxicity on HCT-116 ([1]; 12.5 µM) | Percentage cytotoxicity on HCT-116 ([1]; 25 µM) | Percentage cytotoxicity on HCT-116 ([1]; 50 µM) | Percentage cytotoxicity on HCT-116 ([1]; 100 µM) | Percentage cytotoxicity on MCF-7 ([2]; 12.5 µM) | Percentage cytotoxicity on MCF-7 ([2]; 25 µM) | Percentage cytotoxicity on MCF-7 ([2]; 50 µM) | Percentage cytotoxicity on MCF-7 ([2]; 100 µM) | melting point | Percentage cytotoxicity on PC-3 ([3]; 12.5 µM) | Percentage cytotoxicity on PC-3 ([3]; 25 µM) | Percentage cytotoxicity on PC-3 ([3]; 50 µM) | Percentage cytotoxicity on PC-3 ([3]; 100 µM)
O=c1c2c3c(sc2nc2nc([C@H](O)[C@@H](O)[C@H](O)[C@H](O)CO)[nH]n12)CCC3 [Compound 11a, 2-((1S,2R,3R,4R)-1,2,3,4,5-pentahydroxypentyl)-1,6,7,8-tetrahydro-9H-cyclopenta[4,5]thieno[2,3-d][1,2,4]triazolo[1,5-a]pyrimidin-9-one] | 12.94±4.6% | 12.94±4.6% | 25.8±1.6% | 32.4±3.9% | 0.0±0.005% | 16.2±1.6% | 41.3±4.3% and 36.6±6.3% | 36.6±6.3% and 41.3±4.3% | > 300 °C | 9.9±2.5% | 21.9±1.0% | 7.3±0.3% | 33.9±3.5%
O=c1c2c3c(sc2nc2nc([C@H](O)[C@@H](O)[C@@H](O)[C@H](O)CO)[nH]n12)CCC3 [Compound 11b, 2-((1S,2R,3S,4R)-1,2,3,4,5-pentahydroxypentyl)-1,6,7,8-tetrahydro-9H-cyclopenta[4,5]thieno[2,3-d][1,2,4]triazolo[1,5-a]pyrimidin-9-one] | 18.2±2.3% | 16.1±1.6% | 21.8±1.9% | 18.7±7.6% | 0.0±0.005% | 0.0±0.005% | 22.1±6.9% | 39.4±8.3% | > 300 °C | 0.0±0.005% | 0.0±0.005% | 0.0±0.005% | 12.7±3.8%
O=c1c2c3c(sc2nc2nc([C@@H](O)[C@@H](O)[C@H](O)[C@H](O)CO)[nH]n12)CCC3 [Compound 11c, 2-((1R,2R,3R,4R)-1,2,3,4,5-pentahydroxypentyl)-1,6,7,8-tetrahydro-9H-cyclopenta[4,5]thieno[2,3-d][1,2,4]triazolo[1,5-a]pyrimidin-9-one] | 12.7±1.7% | 19.5±3.7% | 22.3±0.9% | 20.6±5.4% | 0.0±0.005% | 0.0±0.005% | 16.5±2.1% | 38.7±1.5% | > 300 °C | 0.0±0.005% | 0.0±0.005% | 0.0±0.005% | 8.5±4.5%
O=c1c2c3c(sc2nc2nc([C@@H](O)[C@H](O)[C@H](O)CO)[nH]n12)CCC3 [Compound 11d, 2-((1R,2S,3R)-1,2,3,4-tetrahydroxybutyl)-1,6,7,8-tetrahydro-9H-cyclopenta[4,5]thieno[2,3-d][1,2,4]triazolo[1,5-a]pyrimidin-9-one] | 0.0±0.005% | 0.0±0.005% | 0.0±0.005% | 10.0±3.4% | 0.0±0.005% | 29.2±2.9% | 47.9±2.2% | 50.5±0.2% | > 300 °C | 5.4±6.8% | 6.8±0.3% | 9.7±0.5% | 25.3±3.8%
CC(=O)OC[C@@H](OC(C)=O)[C@H](OC(C)=O)[C@H](OC(C)=O)[C@@H](OC(C)=O)c1nc2nc3sc4c(c3c(=O)n2[nH]1)CCC4 [Compound 12b, (1S,2R,3S,4R)-1-(9-oxo-1,7,8,9-tetrahydro-6H-cyclopenta[4,5]thieno[2,3-d][1,2,4]triazolo[1,5-a]pyrimidin-2-yl)pentane-1,2,3,4,5-pentayl pentaacetate] | 0.0±0.005% | 0.0±0.005% | 0.0±0.005% | 13.3±3.1% | 0.0±0.005% | 5.5±0.6% | 20.8±2.1% | 30.1±7.5% | > 300 °C | 1.5±2.3% | 4.8±1.1% | 7.3±0.9% | 20.6±3.3%
CC(=O)OC[C@@H](OC(C)=O)[C@@H](OC(C)=O)[C@H](OC(C)=O)c1nc2nc3sc4c(c3c(=O)n2[nH]1)CCC4 [Compound 12d, (1R,2S,3R)-1-(9-oxo-1,7,8,9-tetrahydro-6H-cyclopenta[4,5]thieno[2,3-d][1,2,4]triazolo[1,5-a]pyrimidin-2-yl)butane-1,2,3,4-tetrayl tetraacetate] | 0.0±0.005% | 0.0±0.005% | 0.0±0.005% | 9.5±1.2% | 0.0±0.005% | 0.0±0.005% | 0.0±0.005% | 26.9±4.8% | > 300 °C | 0.0±0.005% | 0.0±0.005% | 0.0±0.005% | 14.1±6.2%
CC(=O)OC[C@H]1O[C@@H](n2cnn3c(=O)c4c5c(sc4nc23)CCC5)[C@H](OC(C)=O)[C@@H](OC(C)=O)[C@@H]1OC(C)=O [Compound 14, 3-(2,3,4,6-Tetra-O-acetyl-β-d-glocopyranosyl)-7,8-dihydro-3H-cyclopenta-[4,5]thieno-[2,3-d][1,2,4]triazolo[1,5-a]pyrimidin-9(6H)-one] | 0.0±0.005% | 0.0±0.005% | 0.0±0.005% | 15.7±2.9% | 0.0±0.005% | 0.0±0.005% | 0.0±0.005% | 29.2±0.8% | > 300 °C | 0.0±0.005% | 0.0±0.005% | 0.0±0.005% | 9.5±1.9%
CC(=O)C/C(C)=N/n1c(N[C@@H]2O[C@H](COC(C)=O)[C@@H](OC(C)=O)[C@H](OC(C)=O)[C@H]2OC(C)=O)nc2sc3c(c2c1=O)CCC3 [Compound 15, (E)-3-((4-Oxopentan-2-ylidene)amino)-2-((2,3,4,6-tetra-O-acetyl-β-D-glocopyranosyl)amino)-6,7-dihydro-3H-cyclopenta[4,5]thieno[2,3-d]pyrimidin-4(5H)-one] | 0.0±0.005% | 0.0±0.005% | 0.0±0.005% | 3.0±1.2% | 0.0±0.005% | 0.0±0.005% | 0.0±0.005% | 19.7±3.7% | > 300 °C | 0.0±0.005% | 0.0±0.005% | 0.0±0.005% | 5.6±1.2%
